The values that follow come from publication PMC7906020, “Trp-Containing Antibacterial Peptides Impair Quorum Sensing and Biofilm Development in Multidrug-Resistant Pseudomonas aeruginosa and Exhibit Synergistic Effects With Antibiotics” (Frontiers in Microbiology, 2021).

In data set [1] the test system is MRPA0108 biofilm formation. It counts as cell-based, Pseudomonas aeruginosa. The note with it: peptide at 1 × MIC, 24 h, 37°C; crystal violet OD 590 nm; vs control. As for the experimental part:
The biofilm formation of the MRPA0108 strain was assessed as described previously ([Shang et al., 2017]). Briefly, 50 μl of a mid-log growth-phase bacterial solution (1 × 10^5 CFU/ml) was placed into a 96-well microtiter plate and incubated overnight with 50 μl of peptide at a final concentration of 1/8 × MIC, 1/4 × MIC, 1/2 × MIC, or 1 × MIC. LB liquid medium and erythromycin were used as negative and positive controls, respectively. After 24 h of incubation at 37°C, planktonic bacteria were carefully removed, and the biofilms were fixed with formaldehyde for 15 min and stained with 0.1% (w/v) crystal violet (CV) dye for 5 min. Before being quantified by reading the absorbance at 590 nm in a microtiter plate reader (Varioskan Flash Microplate Reader, Thermo Fisher Scientific Co., Beijing), biofilms were washed and solubilized with 95% ethanol. The OD 590 nm was determined as a measure of biofilm biomass.

The test system of a further data set is MRPA0108 biofilms. Description: Confocal laser scanning microscopy of biofilms (LIVE/DEAD staining). It counts as cell-based, Pseudomonas aeruginosa. The note with it: 24 h; for percentage of dead/live cells in biofilm: SYTO9/PI, control 8.7%. As for the experimental part: Biofilms of MRPA0108 were visualized by confocal microscopy. Mid-log growth-phase bacteria were diluted to 1 × 10^7 CFU/ml. […] LB liquid medium and erythromycin were used as negative and positive controls, respectively. After incubation, the supernatant was removed, and the slides were washed and stained in a dark environment for 30 min using a LIVE/DEAD BacLight^TM Bacterial Viability Kit (Invitrogen, Life Technologies, Shanghai, China). The slides were washed three times and imaged with a confocal laser scanning microscope (LSM 710, Carl Zeiss, Germany) with excitation/emission wavelengths of 480/500 and 490/635 nm for SYTO9 and propidium iodide (PI), respectively. SYTO9 was used to indicate live bacteria, and PI was used to mark dead bacteria.

The conditions of data set [2]: cited from earlier work. From the text:
Supplement Table_1.docx, table 1: Table S1 Biological characteristics and antibacterial activities of the Trp-containing antimicrobial peptides (32) | column: Hemolysis (μM)

Another data set relates to MRPA0108 cells. The data set can be described thus: Intracellular antibiotic assay by HPLC. It counts as cell-based, Pseudomonas aeruginosa. The note with it: RP-HPLC of cell lysate. The procedure: Mid-log growth-phase bacteria were diluted to 1 × 10^8 CFU/ml and treated with I1W or L12W at concentrations ranging from 3.13 to 50 μM for 12 h at 37°C. After induction, the cultures were harvested by centrifugation at 12,000 rpm for 2 min, washed three times with PBS buffer (pH 7.2), and then incubated with lysozyme (20 mg/ml) at 37°C for 1 h in a water bath. After centrifugation at 12,000 rpm for 5 min, the supernatant of the cell lysates was collected, added to methanol (1:3) and vortexed to precipitate proteins. After recentrifugation at 12,000 rpm for 5 min, the supernatant was measured by using HPLC with a mobile phase of 0.1% trifluoroacetic acid/methanol (92:8, v/v) and a flow rate of 0.7 ml/min.

The test system of data set [3] is β-lactamase activity in MRPA0108 cells. Description: β-Lactamase activity assay (nitrocefin kit) in treated cells. The following applies: compared to control. It counts as cell-based, Pseudomonas aeruginosa. The procedure: β-lactamase activity was measured by using a β-lactamase assay kit (YIASEN Biotech Co., Ltd., Shanghai, China) according to the manufacturer’s instructions. Briefly, mid-log growth-phase bacteria were diluted to 1 × 10^8 CFU/ml and treated with I1W or L12W at concentrations ranging from 3.13 to 50 μM for 12 h at 37°C. After induction, the cultures were harvested by centrifugation at 5,000 rpm at 4°C, washed three times with PBS buffer (pH 7.2), and then resuspended in the same buffer. The cells were sonicated on ice for 15 min, and the cell lysates containing β-lactamase were collected by centrifugation at 12,000 rpm for 30 min at 4°C. Fifty microliters of the prepared β-lactamase-containing lysates was mixed with 50 μl of assay buffer containing nitrocefin and reacted at room temperature in a dark environment for 20 min. Nitrocefin hydrolysis was measured spectrophotometrically at 490 nm. Concurrently, the total protein content was determined with a Bradford assay using the same supernatant. One milliunit of β-lactamase is defined as 1 nanomole of nitrocefin hydrolyzed per minute per microgram of protein.

The test system of data set [4] is OprM gene expression in MRPA0108. Description: Real-time qPCR of efflux pump gene OprM. The class given is cell-based, Pseudomonas aeruginosa. The note with it: peptide at its MIC (I1W 6.25 μM, L12W 25 μM); Supplementary Figure S2. As for the experimental part: (§1) Mid-logarithmic (mid-log) growth-phase MRPA0108 cells (1 × 10^8 CFU/ml) were incubated with the different concentrations of peptide at 37°C for 18 h. The bacterial cells were collected by centrifugation at 13,000×g and digested in lysis buffer containing 10 mg/ml lysozyme. Total RNA was isolated by using a TRIzol® Max^TM Kit (Invitrogen, Shanghai, China) according to the manufacturer’s instructions and subsequently reverse transcribed into cDNA using a Prime Script RT Master Mix Kit (Takara, Dalian, China). Real-time PCR was performed in an ABI QuantStudio^TM 5 sequence detection system (Applied Biosystems, United States) using 2 × SYBR Premix Ex Taq II (Solarbio Science and Technology Co., Ltd.). The PCR cycling conditions were as follows: 95°C for 30 s and 40 cycles of 5 s at 95°C, 30 s at 60°C, and 20 s at 72°C. The fold changes calculated according to the comparative cycle threshold (Ct) method were used for quantifying gene expression, normalizing to the expression of the housekeeping gene rpsL. PCR primers, including those for lasA, lasB, rhlA, rhlB, pelA, algD, psl, oprD, oprM, mexA, and mexB, were synthesized by Sangon Biotech (Shanghai, China) and are presented in Supplementary Table S2.
Background: Quantitative PCR measures a nucleic acid by following its amplification.

Data set [5] relates to OprD gene expression in MRPA0108. Description: Real-time qPCR of porin gene OprD. It counts as cell-based, Pseudomonas aeruginosa. The note with it: peptide at its MIC (I1W 6.25 μM, L12W 25 μM); Supplementary Figure S2. The procedure: as §1
Setting [6] is: range over peptide 3.13 to 50 μM, 12 h 37°C.

Values joined by “and” are separate entries in the source; they are usually repeats but may differ in a detail not shown here. Equal entries are not always repeated. Peptide text beside a SMILES is read from it. Bounds are passed on as bounds.

For `CC[C@H](C)[C@H](NC(=O)[C@H](CCCCN)NC(=O)[C@H](CO)NC(=O)[C@H](CC(C)C)NC(=O)[C@@H](NC(=O)[C@H](CCCCN)NC(=O)[C@H](CCCCN)NC(=O)[C@@H](N)Cc1c[nH]c2ccccc12)[C@@H](C)CC)C(=O)N[C@@H](CCCCN)C(=O)N[C@@H](CCCCN)C(=O)N[C@@H](CC(C)C)C(=O)N[C@@H](CC(C)C)C(=O)N[C@@H](CCCCN)C(N)=O` [I1W] (H-WKKILSKIKKLLK-NH2; N-terminus and C-terminus assumed), in data set [1], the “reduction of biofilm formation” value is given as 53%. For the same compound, the average biofilm thickness with MRPA0108 biofilms (after treatment with low concentrations of peptide (1 × MIC or 2 × MIC), 37°C, control biofilm 6 μm) is 1.5–2.5 μm and 1.5 μm. In addition, the “percentage of dead/live cells in biofilm” value in the data set on MRPA0108 biofilms (peptide at 1 × MIC) is recorded as 29.9%; in the data set with MRPA0108 biofilms (peptide at 2 × MIC), 47.9%. The Hemolysis in data set [2] is above 500 µM. In addition, the entries for the “increase of ceftazidime content in MRPA0108 cells” value with MRPA0108 cells (peptide at its MIC) and with MRPA0108 cells (setting [6]) were 19% and 7.5-100%, respectively. Also, the “increase of levofloxacin content in MRPA0108 cells” value with MRPA0108 cells (peptide at its MIC) is given as 1%; in the data set with MRPA0108 cells (setting [6]) it was 0.01–22%. Also, the “increase of piperacillin content in MRPA0108 cells” value was 17% in the data set with MRPA0108 cells (peptide at its MIC) and 8–80% in the data set with MRPA0108 cells (setting [6]). Moreover, the “effect on β-lactamase activity, peptide alone” value in data set [3] (peptide alone at concentrations greater than 12.5 μM) was “reduced β-lactamase activity”; in data set [3] (peptide alone at low concentrations), “no effect on β-lactamase activity”. The “reduction of OprM gene expression” value in data set [4] was found to be 22.3%. The “reduction of OprD gene expression” value in data set [5] is reported as 27%.
